Our source for the IC50 values is patent US10030006B2, “Coumarin based Hsp90 inhibitors with urea and ether substituents” (University of Kansas, priority 2013, dated 2018).

What all share (assay type): cell-based
The test system of one assay is HMLE. As to the kind of experiment: Anti-proliferation assay, HMLE (normal). Particulars: Table 6, substituted phenyl ureas. On the procedure:
(§1) Cells were maintained in a 1:1 mixture of Advanced DMEM/F12 (Gibco) supplemented with non-essential amino acids, L-glutamine (2 mM), streptomycin (500 μg/mL), penicillin (100 units/mL), and 10% FBS. Cells were grown to confluence in a humidified atmosphere (37° C., 5% CO2), seeded (2000/well, 100 μL) in 96-well plates, and allowed to attach overnight. Compound at varying concentrations in DMSO (1% DMSO final concentration) was added, and cells were returned to the incubator for 72 h. At 72 h, the number of viable cells was determined using an MTS/PMS cell proliferation kit (Promega) per the manufacturer's instructions. Cells incubated in 1% DMSO were used at 100% proliferation, and values were adjusted accordingly. IC50 values were calculated from separate experiments performed in triplicate using GraphPad Prism.

Another assay relates to PC-3. In words: Anti-proliferation assay, PC-3. As to conditions: Table 6, substituted phenyl ureas, Prostate Cancer. As for the experimental part:
as §1

A further assay concerns HCT-116. As to the kind of experiment: Anti-proliferation assay, HCT-116. Particulars: Table 6, substituted phenyl ureas. As for the experimental part: as §1
Assay [1] deals with SKBr3 (estrogen receptor negative, Her2 over-expressing breast cancer cells). In words: Anti-proliferation assay (MTS/PMS, 72 h), SKBr3. As to conditions: Table 6, substituted phenyl ureas, Breast Cancer, read-out: IC50 SKBr3.
In another assay the test system is MRC5. As to the kind of experiment: Anti-proliferation assay, MRC5 (normal). On the procedure:
as §1

The test system of a further assay is MDAMB231. In words: Anti-proliferation assay, MDAMB231. Particulars: Table 6, substituted phenyl ureas, Tri-Neg. As for the experimental part:
as §1

In the next assay the test system is JMAR. As to the kind of experiment: Anti-proliferation assay, JMAR. Particulars: Table 6, substituted phenyl ureas, HSNCC. On the procedure:
as §1

The test system of a further assay is MDA1986. As to the kind of experiment: Anti-proliferation assay, MDA1986. Particulars: Table 6, substituted phenyl ureas, HSNCC. As for the experimental part:
as §1

The subject of another assay is DRO81-1. In words: Anti-proliferation assay, DRO81-1. Particulars: Table 6, substituted phenyl ureas; Thyroid. As for the experimental part: as §1
The next assay has as its system A-549. In words: Anti-proliferation assay, A-549. As to conditions: Table 6, substituted phenyl ureas. On the procedure: as §1
The subject of assay [2] is MCF-7 (estrogen receptor positive breast cancer cells). In words: Anti-proliferation assay (MTS/PMS, 72 h), MCF-7. Particulars: Table 6, substituted phenyl ureas, Breast Cancer, read-out: IC50 MCF-3.
Setting [3] is: Homo sapiens, MRC5, Table 6, substituted phenyl ureas.

Read-outs that look alike come from different tables or passages of the source.

By IC50 is commonly meant the point on the concentration scale where inhibition reaches its midpoint. As to `COc1ccc(C(C)(C)C)cc1NC(=O)Nc1cc2ccc(OC3CCN(C)CC3)c(C)c2oc1=O` [Compound 2-OMe-5-t-Bu, 1-(5-(tert-butyl)-2-methoxyphenyl)-3-(8-methyl-7-((1-methylpiperidin-4-yl)oxy)-2-oxo-2H-chromen-3-yl)urea], the half-maximal inhibitory concentration (IC50) worked out at 6.1 µM in the assay with HMLE (HMLE); 3820 nM in the assay on PC-3 (Homo sapiens, PC-3); 1240 nM with HCT-116 (Homo sapiens, HCT-116); 3870 nM in assay [1] (Homo sapiens, SK-BR-3); 2.65 µM in the assay on MRC5 (setting [3]); 910 nM with MDAMB231 (Homo sapiens, MDA-MB-231). Besides, the IC50 was 3.8 µM in the assay on JMAR (JMAR); 90 nM with MDA1986 (MDA1986); 6.1 µM in the assay with DRO81-1; 840 nM with A-549 (Homo sapiens, A549); 1530 nM in [2] (Homo sapiens, MCF7).

Take `COc1ccc(NC(=O)Nc2cc3ccc(OC4CCN(C)CC4)c(C)c3oc2=O)cc1` [p-OCH3, 1-(4-methoxyphenyl)-3-(8-methyl-7-((1-methylpiperidin-4-yl)oxy)-2-oxo-2H-chromen-3-yl)urea]: the IC50 came to 0.74 µM with HMLE (HMLE); 520 nM with PC-3 (Homo sapiens, PC-3); 250 nM in the assay on HCT-116 (Homo sapiens, HCT-116); 860 nM in assay [1] (Homo sapiens, SK-BR-3); 2.7 µM with MRC5 (setting [3]); 2400 nM in the assay on MDAMB231 (Homo sapiens, MDA-MB-231). For the same molecule, the IC50 with JMAR (JMAR) came to 8.4 µM; in the assay on MDA1986 (MDA1986) it was 2600 nM; with DRO81-1, 29 µM; in the assay with A-549 (Homo sapiens, A549), 1090 nM; in assay [2] (Homo sapiens, MCF7) it was 960 nM.

For `Cc1c(OC2CCN(C)CC2)ccc2cc(NC(=O)Nc3cccc(Cl)c3)c(=O)oc12` [m-Cl, 1-(3-chlorophenyl)-3-(8-methyl-7-((1-methylpiperidin-4-yl)oxy)-2-oxo-2H-chromen-3-yl)urea], the half-maximal inhibitory concentration (IC50) with HMLE (HMLE) is 22 µM; with PC-3 (Homo sapiens, PC-3), 1820 nM; in the assay on HCT-116 (Homo sapiens, HCT-116), 220 nM; in assay [1] (Homo sapiens, SK-BR-3) it was 300 nM; in the assay with MRC5 (setting [3]), 3.1 µM; in the assay with MDAMB231 (Homo sapiens, MDA-MB-231), 570 nM. The half-inhibitory concentration (IC50) with JMAR (JMAR) is 1.7 µM; with MDA1986 (MDA1986) it was 1700 nM; in the assay with DRO81-1, 3.8 µM; in the assay with A-549 (Homo sapiens, A549), 63 nM; in assay [2] (Homo sapiens, MCF7), 520 nM.

On to `CC(=O)c1ccc(NC(=O)Nc2cc3ccc(OC4CCN(C)CC4)c(C)c3oc2=O)cc1` [p-COCH3], for which the IC50 was 8 µM in the assay with HMLE; 2750 nM with PC-3; 250 nM in the assay with HCT-116; 1520 nM in assay [1]; 7.7 µM in the assay on MRC5 (Table 6, substituted phenyl ureas); 750 nM in the assay on MDAMB231. The half-maximal inhibitory concentration (IC50) with JMAR was 11.9 µM; in the assay with MDA1986 it was 3400 nM; in the assay on DRO81-1 it was 13.3 µM; with A-549, 240 nM; in assay [2], 1720 nM.

As for `Cc1c(OC2CCN(C)CC2)ccc2cc(NC(=O)Nc3ccc(Oc4ccccc4)cc3)c(=O)oc12` [p-phenoxyl, 1-(8-methyl-7-((1-methylpiperidin-4-yl)oxy)-2-oxo-2H-chromen-3-yl)-3-(4-phenoxyphenyl)urea], the 50% inhibitory concentration (IC50) in the assay on HMLE (HMLE) is greater than 25 µM; in the assay on PC-3 (Homo sapiens, PC-3) it was 150 nM; with HCT-116 (Homo sapiens, HCT-116) it was 240 nM; in assay [1] (Homo sapiens, SK-BR-3) it was 400 nM; in the assay on MRC5 (setting [3]), 11.3 µM; in the assay with MDAMB231 (Homo sapiens, MDA-MB-231), 2200 nM. Further, the IC50 in the assay with JMAR (JMAR) stood at 5.3 µM; in the assay on MDA1986 (MDA1986), 6000 nM; with DRO81-1 it was 1.8 µM; in the assay with A-549 (Homo sapiens, A549), 180 nM; in assay [2] (Homo sapiens, MCF7), 700 nM.

On to `Cc1c(OC2CCN(C)CC2)ccc2cc(NC(=O)Nc3ccc(Br)cc3)c(=O)oc12` [p-Br, 1-(4-bromophenyl)-3-(8-methyl-7-((1-methylpiperidin-4-yl)oxy)-2-oxo-2H-chromen-3-yl)urea], for which the half-maximal inhibitory concentration (IC50) in the assay on HMLE (HMLE) worked out at 6 µM; in the assay on PC-3 (Homo sapiens, PC-3), 180 nM; in the assay on HCT-116 (Homo sapiens, HCT-116), 240 nM; in [1] (Homo sapiens, SK-BR-3), 650 nM; in the assay with MRC5 (setting [3]), 5.5 µM; in the assay with MDAMB231 (Homo sapiens, MDA-MB-231), 2600 nM. Further, the half-maximal inhibitory concentration (IC50) was 3.6 µM in the assay with JMAR (JMAR); 3500 nM with MDA1986 (MDA1986); 3.5 µM in the assay on DRO81-1; 110 nM in the assay on A-549 (Homo sapiens, A549); 1040 nM in assay [2] (Homo sapiens, MCF7).

Regarding `Cc1cc(C)cc(NC(=O)Nc2cc3ccc(OC4CCN(C)CC4)c(C)c3oc2=O)c1` [3,5-dimethyl, 1-(3,5-dimethylphenyl)-3-(8-methyl-7-((1-methylpiperidin-4-yl)oxy)-2-oxo-2H-chromen-3-yl)urea], the IC50 in the assay with HMLE (HMLE) came to 13.8 µM; in the assay on PC-3 (Homo sapiens, PC-3) it was 1350 nM; with HCT-116 (Homo sapiens, HCT-116) it was 170 nM; in [1] (Homo sapiens, SK-BR-3), 300 nM; with MRC5 (setting [3]) it was 5.9 µM; in the assay with MDAMB231 (Homo sapiens, MDA-MB-231) it was 650 nM. In addition, the IC50 came out at 3.4 µM in the assay with JMAR (JMAR); 90 nM with MDA1986 (MDA1986); 8.4 µM in the assay on DRO81-1; 52 nM with A-549 (Homo sapiens, A549); 340 nM in assay [2] (Homo sapiens, MCF7).

Regarding `Cc1c(OC2CCN(C)CC2)ccc2cc(NC(=O)Nc3ccc(-c4ccccc4)cc3)c(=O)oc12` [p-phenyl, 1-([1,1′-biphenyl]-4-yl)-3-(8-methyl-7-((1-methylpiperidin-4-yl)oxy)-2-oxo-2H-chromen-3-yl)urea], the half-inhibitory concentration (IC50) in the assay on HMLE (HMLE) was 3.6 µM; in the assay with PC-3 (Homo sapiens, PC-3), 52 nM; with HCT-116 (Homo sapiens, HCT-116) it was 150 nM; in assay [1] (Homo sapiens, SK-BR-3), 360 nM; with MRC5 (setting [3]) it was 2 µM; with MDAMB231 (Homo sapiens, MDA-MB-231), 370 nM. The IC50 in the assay on JMAR (JMAR) was 0.93 µM; with MDA1986 (MDA1986), 850 nM; in the assay on DRO81-1 it was 0.27 µM; in the assay with A-549 (Homo sapiens, A549) it was 66 nM; in assay [2] (Homo sapiens, MCF7), 700 nM.

As for `Cc1ccc(NC(=O)Nc2cc3ccc(OC4CCN(C)CC4)c(C)c3oc2=O)cc1C` [3,4-dimethyl, 1-(3,4-dimethylphenyl)-3-(8-methyl-7-((1-methylpiperidin-4-yl)oxy)-2-oxo-2H-chromen-3-yl)urea], the half-inhibitory concentration (IC50) in the assay on HMLE (HMLE) stood at 0.9 µM; in the assay on PC-3 (Homo sapiens, PC-3) it was 1330 nM; with HCT-116 (Homo sapiens, HCT-116), 66 nM; in [1] (Homo sapiens, SK-BR-3), 310 nM; in the assay on MRC5 (setting [3]), 2.7 µM; in the assay on MDAMB231 (Homo sapiens, MDA-MB-231) it was 1900 nM. The IC50 in the assay on JMAR (JMAR) is 1.7 µM; with MDA1986 (MDA1986) it was 1300 nM; with DRO81-1, 8.1 µM; in the assay on A-549 (Homo sapiens, A549), 63 nM; in assay [2] (Homo sapiens, MCF7), 330 nM.

`Cc1c(OC2CCN(C)CC2)ccc2cc(NC(=O)Nc3ccc(F)cc3)c(=O)oc12` [p-F, 1-(4-fluorophenyl)-3-(8-methyl-7-((1-methylpiperidin-4-yl)oxy)-2-oxo-2H-chromen-3-yl)urea]: the concentration for half-maximal inhibition (IC50) in the assay with HMLE (HMLE) is greater than 25 µM; in the assay on PC-3 (Homo sapiens, PC-3), 3320 nM; in the assay with HCT-116 (Homo sapiens, HCT-116), 61 nM; in assay [1] (Homo sapiens, SK-BR-3) it was 480 nM; in the assay on MRC5 (setting [3]) it was greater than 25 µM; in the assay on MDAMB231 (Homo sapiens, MDA-MB-231) it was 50 nM. The half-maximal inhibitory concentration (IC50) is 8.6 µM in the assay on JMAR (JMAR); 10 nM in the assay with MDA1986 (MDA1986); 19.9 µM with DRO81-1; 1060 nM in the assay with A-549 (Homo sapiens, A549); 960 nM in assay [2] (Homo sapiens, MCF7).

As for `Cc1c(OC2CCN(C)CC2)ccc2cc(NC(=O)Nc3ccc(C#N)cc3)c(=O)oc12` [p-CN, 1-(4-cyanophenyl)-3-(8-methyl-7-((1-methylpiperidin-4-yl)oxy)-2-oxo-2H-chromen-3-yl)urea], the concentration for half-maximal inhibition (IC50) in the assay with HMLE (HMLE) worked out at 4 µM; in the assay with PC-3 (Homo sapiens, PC-3) it was 48 nM; in the assay with HCT-116 (Homo sapiens, HCT-116), 570 nM; in [1] (Homo sapiens, SK-BR-3), 370 nM; in the assay on MRC5 (setting [3]) it was 5.7 µM; in the assay on MDAMB231 (Homo sapiens, MDA-MB-231), 440 nM. Further, the concentration for half-maximal inhibition (IC50) with JMAR (JMAR) came out at 3.7 µM; in the assay on MDA1986 (MDA1986), 1620 nM; in the assay with DRO81-1 it was 0.28 µM; in the assay with A-549 (Homo sapiens, A549), 43 nM; in assay [2] (Homo sapiens, MCF7) it was 430 nM.
